Measured values reported in US20120071397A1, “Methods for Hematopoietic Stem Cell Transplantation” (University of Southern California, priority 2010, published 2012).

Tested on: C57Bl/6 mice transplanted after myeloablation by total body irradiation (TBI)
Assay: Survival of mice after syngeneic bone marrow transplant following myeloablation by total body irradiation, with suspected norovirus infection
Assay type: in vivo
Details: 500 μg/kg/day subcutaneous, FIG. 1
Method: FIG. 1. C57Bl/6 mice (n=40/group) were transplanted after myeloablation by total body irradiation (TBI) from Saline or A(1-7) treated donors and received saline or A(1-7) after transplant.
[…] mice underwent […] in split doses separated by 3 hours. Two hours after TBI, the mice received 2×10^6 syngeneic bone marrow cells by intravenous injection. For treatment, either donors (14 days prior to donation), recipients (starting on the day of transplant) or both received 500 μg/kg/day A(1-7) by subcutaneous injection During bone marrow transplant (BMT), recipients are immune suppressed due to myeloablation. Mice are normally kept in pathogen-free environments during BMT to reduce mortality due to infection.

Asp-Arg-Val-Tyr-Ile-His-Pro (DRVYIHP) [A(1-7)]
survival (both donor and recipient treated): all surviving
survival (treatment of either donor (14 days prior to donation), recipient (starting on day of transplant) or both): improved survival
